From patent US7273715B2 (priority 2003, dated 2007)
Where two headings read alike, the source gives them in different places. Peptide text beside a SMILES is read from it. * marks the point of attachment. Cbz = O=C(OCc1ccccc1)*

How the values were obtained:
GS-9005 hydrolase A [1] = molecular target: T1, GS-9005 hydrolase A (Homo sapiens, UniProt P42785); type: biochemical
T1 construct: Varying amounts of purified GS-9005 hydrolase A and control enzymes; from tissue; host or cells: human peripheral blood mononuclear cells (PBMC), purified by Q15 flow-through, SP-Sepharose, Butyl Sepharose HIC and lentil lectin chromatography
T1 sequence (P42785 46-496): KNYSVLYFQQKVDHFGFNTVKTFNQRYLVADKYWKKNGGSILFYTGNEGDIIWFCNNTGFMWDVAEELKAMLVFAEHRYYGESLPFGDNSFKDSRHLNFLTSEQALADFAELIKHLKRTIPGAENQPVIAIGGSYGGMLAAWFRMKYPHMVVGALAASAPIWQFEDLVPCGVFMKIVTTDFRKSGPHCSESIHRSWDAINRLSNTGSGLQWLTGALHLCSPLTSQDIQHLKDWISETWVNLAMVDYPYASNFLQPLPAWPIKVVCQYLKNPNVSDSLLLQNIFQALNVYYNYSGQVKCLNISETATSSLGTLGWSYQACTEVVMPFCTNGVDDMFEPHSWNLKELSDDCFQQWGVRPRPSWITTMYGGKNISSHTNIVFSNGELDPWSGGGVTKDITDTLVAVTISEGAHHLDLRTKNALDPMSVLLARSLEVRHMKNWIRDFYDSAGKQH

GS-9005 hydrolase A [2] = molecular target: T1, GS-9005 hydrolase A; type: biochemical; remark: listed apart in the source
[3] = molecular target: Human Prolylcarboxypeptidase (Homo sapiens, UniProt P42785); settings: read-out: Inhibition profile, ProlylcarboxyPeptidase; cited from earlier work
[4] = pH 6.5, read-out: IC50 (inhibition profile, 9005 Hydrolase A)
[5] = read-out: concentration at which GS-9005 hydrolase A is inhibited by 50%

SMILES	specific activity of GS-9005 hydrolase A against the compound (comparison in words) (GS-9005 hydrolase A [1])	other results
CCOC(=O)COP(=O)(COc1ccc(Cn2c(COC(N)=O)nc(C(C)C)c2Sc2cc(Cl)cc(Cl)c2)cc1)Oc1ccccc1 (stereo not shown) [Compound HH]	greater than its specific activity against Compound I	–
C=C(OC(C)C)[C@H](C)N[P@](=O)(CO[C@H](C)Cn1cnc2c(C)ncnc21)Oc1ccccc1 [Compound K]	approximately equivalent specific activity	–
O=c1oc(Cl)c(Cl)c2ccccc12 [DCI, 3,4 dichloroisocoumarin]	–	inhibition of GS-9005 hydrolase A (in words) (GS-9005 hydrolase A [2]): inhibited
O=S(=O)(F)Cc1ccccc1 [PMSF]	–	IC50 (GS-9005 hydrolase A [2]; [4]): 200 µM; IC50 (GS-9005 hydrolase A [2]; [5]): ~200 µM; IC50 [3]: 100 to 300 µM
CCOC(=O)[C@H](C)NP(=O)(COc1ccc(C[C@@H]2[C@H](O)[C@@H](O)[C@@H](Cc3ccc(OC)cc3)N(Cc3ccc4[nH]ncc4c3)C(=O)N2Cc2ccc3[nH]ncc3c2)cc1)Oc1ccccc1 (stereo partly shown) [Compound CC]	approximately equivalent specific activity	–
C=C(OC(C)C)C(C)OP(=O)(CCNCc1ccc(C[C@H](NC(=O)O[C@H]2CO[C@H]3OCC[C@H]32)[C@H](O)CN(CC(C)C)S(=O)(=O)c2ccc(OC)cc2)cc1)Oc1ccccc1 (stereo partly shown) [Compound X]	greater than its specific activity against Compound V	–
CCOC(=O)[C@H](C)NP(=O)(COc1ccc(Cn2c(COC(N)=O)nc(C(C)C)c2Sc2cc(Cl)cc(Cl)c2)cc1)Oc1ccccc1 (stereo partly shown) [Compound KK]	greater than its specific activity against Compound FF	–
CCOC(=O)[C@H](C)OP(=O)(COc1ccc(C[C@@H]2[C@H](O)[C@@H](O)[C@@H](Cc3ccc(OC)cc3)N(Cc3ccc4[nH]ncc4c3)C(=O)N2Cc2ccc3[nH]ncc3c2)cc1)Oc1c(C)cccc1C (stereo partly shown) [Compound EE]	greater than its specific activity against Compound W	–
CCOC(=O)[C@H](C)OP(=O)(COc1ccc(C[C@H](NC(=O)O[C@H]2CO[C@H]3OCCC32)[C@H](O)CN(CC(C)C)S(=O)(=O)c2ccc(OC)cc2)cc1)Oc1ccccc1 (stereo partly shown) [Compound A]	greater than its specific activity against Compound L	–
CCOC(=O)[C@H](C)NP(=O)(COc1ccc(C[C@@H]2[C@H](O)[C@@H](O)[C@@H](Cc3ccc(OC)cc3)N(Cc3ccc4[nH]ncc4c3)C(=O)N2Cc2ccc3[nH]ncc3c2)cc1)N[C@@H](C)C(=O)OCC [Compound BB]	approximately equivalent specific activity	–
CCOC(=O)[C@H](C)OP(=O)(CCN1CCN(C(=O)c2c3c(c(O)c4ncccc24)C(=O)N(Cc2ccc(F)cc2)C3)CC1)Oc1ccccc1 (stereo partly shown) [Compound Y]	greater than its specific activity against Compound B	–
COC(=O)[C@H](C)N[P@](=O)(CO[C@H](C)Cn1cnc2c(N)ncnc21)Oc1ccccc1 [Compound U]	approximately equivalent specific activity	–
COC(=O)[C@H](C)NP(=O)(COc1ccc(Cn2c(COC(N)=O)nc(C(C)C)c2Sc2cc(Cl)cc(Cl)c2)cc1)Oc1ccccc1 (stereo partly shown) [Compound LL]	approximately equivalent specific activity	–
CCOC(=O)[C@H](C)OP(=O)(CCNCc1ccc(Cn2c(COC(N)=O)nc(C(C)C)c2Sc2cc(Cl)cc(Cl)c2)cc1)Oc1ccccc1 (stereo partly shown) [Compound GG]	greater than its specific activity against Compound DD	–
CCSc1ccc(CN2CCCN(Cc3cccnc3)CC2)cc1 [Compound JJ]	greater than its specific activity against Compound AA	–
C=C(OCC)[C@H](C)OP(=O)(CCNC(=O)c1c2c(c(O)c3ncccc13)C(=O)N(Cc1ccc(F)cc1)C2)Oc1ccccc1 (stereo partly shown) [Compound Z]	approximately equivalent specific activity	–
O=C[C@@H]1CCCN1C(=O)[C@@H]1CCCN1C(=O)OCc1ccccc1 [Cbz-pro-pro-COH, Carboxybenzoyl-Pro-Pro-COH] (Cbz-Pro-Pro-aldehyde)	–	inhibition of GS-9005 hydrolase A (in words) (GS-9005 hydrolase A [2]): inhibited; IC50 (GS-9005 hydrolase A [2]; [4]): 1 µM; IC50 (GS-9005 hydrolase A [2]; [5]): ~1 µM; IC50 [3]: 1 µM
